Test results as given in CN109134447A, “一种富马酸卢帕替芬的杂质b及其制备方法和检测方法” (FUJIAN MINDONG REJUVENATION PHARMACEUTICAL Co Ltd, priority 2018, dated 2019).

Experiment: Stability test of the reference solution of the compound of formula I (HPLC peak area)
Assay type: physicochemical
Settings: reference solution in 50% aqueous methanol (25 mg in 25 ml); injected at 0, 2, 4, 8, 12, 24 h after preparation, 20 μl each; within 24 hours

## Cc1cncc(C[N+]2(C)CCC(=C3c4ccccc4CC(=O)c4sccc43)CC2)c1.[Br-] (stereo not shown) [式Ⅰ所示化合物]
  stability (peak area by HPLC): 稳定
